From patent US20130150399A1, “INHIBITORS OF THE UNFOLDED PROTEIN RESPONSE AND METHODS FOR THEIR USE” (The Board of Trustees of the Leland Stanford Junior …, priority 2006, published 2013)

Key:
Type in all cases: cell-based, human
[1] = tested on: ATF6; test: Western blot of ATF6 cleavage, hypoxic HT1080 cells; conditions: 2.5 μM
Method: (§1) Cells (2×10^6) were cultured in 10-cm dishes, collected using a cell scraper at 4° C., and lysed by addition of 150 μl cell lysis buffer [50 mM Tris pH 7.4, 150 mM NaCl, 10% glycerol, 0.5% Triton X-100. 0.5% NP-40, 2 mM Na3VO4, 20 mM beta-glycerophosphate, 10 mM NaF, 1 mM DTT, 1 mM PMSF). Lysates were centrifuged for 5 min at 10,000×g, and proteins (˜40 μg) were resolved by SDS-PAGE followed by semi-dry transfer to nitrocellulose membranes. Membranes were blocked in TBS-5% milk supplemented with 0.1% Tween-20. The blots were then probed overnight with relevant antibodies, washed, and incubated for 2 hours with species-specific secondary antibodies conjugated to horseradish peroxidase. After washing in block solution, immunoreactive material was detected by enhanced chemiluminescence (SuperSignal West Dura Extended, Pierce, Inc., Rockville, Ill.).
(§2) A. Effect of irestatin 9389 on PERK and ATF6 pathways. […] Protein lysates were analyzed by Western blot analysis using antisera specific for ATF6 (top), CHOP/GADD153 (middle) or actin (bottom). […] Cells were harvested, counted, and allowed to grow under normal culture conditions for 11-12 days. […] D. Quantification of clonogenic survival assay. […] F. Quantification of TUNEL-positive cells. […] Cells were harvested at the indicated times and counted by hemocytometer. Values represent the mean calculated from triplicate experiments+/−SEM. […]

[2] = tested on: phospho-JNK1; test: Western blot of phospho-JNK1 under ER stress, HT1080 cells; conditions: irestatins 2.5 μM, 2 hour preincubation; Tm 4 μg/ml, 1.5 hrs
Method: as §1
HT1080 cells were exposed to DMSO vehicle (lane 1), irestatin 9389 (2.5 μM; lane 2) for 16 hours or Tm (5 μg/ml; lane 3) for 8 hours. Following treatments, cells were harvested, lysed, and analyzed by immunoblotting using anti-Grp78 antibody (top) or anti-actin (bottom) as a loading control. […] Cell lysates were analyzed by Western immunoblotting using anti-IRE1α (bottom) or anti-phospho-IRE1α antibodies (top). […] Lysates were analyzed by Western blot using antisera specific for phospho-JNK1 (top) or total JNK1 (bottom). […]

[3] = tested on: caspase-3; test: Cleavage of caspase-3, HT1080 cells; conditions: 2.5 μM
Method: as §1, §2

Cc1csc(NC(=O)CSc2nc3c(c(C(F)(F)F)c2C#N)CCC3)n1 [Compound 9389]
proteolytic cleavage of ATF6 into active 50 kDa form [1]: significantly increased the proteolytic cleavage of ATF6 | phosphorylation of JNK1 during Tm-induced ER stress [2]: failed to block the phosphorylation of JNK1 | cleavage of caspase-3 ([3]; 36 hours of hypoxia): stimulated cleavage of caspase-3 | caspase-3 processing ([3]; normal oxygen conditions): no effect on caspase-3 processing
